Results on four compounds are retold here after ChEMBL document CHEMBL5316378, “DNA-Encoded Macrocyclic Peptide Libraries Enable the Discovery of a Neutral MDM2-p53 Inhibitor” (ACS Med Chem Lett, 2023).

One test has as its system RS4-11. As to the kind of experiment: Anticancer activity against human RS4-11 cells assessed as cell viability incubated for 3 days by CellTiterGlo assay. It counts as functional, cell-based. As to conditions: RS4-11, 72 h. (In general: ATP-based viability assays read luminescence as a measure of living cells.)
For the next test, the target named is T1, Protein Mdm4 (Homo sapiens, UniProt O15151).
T1 sequence (O15151 whole entry): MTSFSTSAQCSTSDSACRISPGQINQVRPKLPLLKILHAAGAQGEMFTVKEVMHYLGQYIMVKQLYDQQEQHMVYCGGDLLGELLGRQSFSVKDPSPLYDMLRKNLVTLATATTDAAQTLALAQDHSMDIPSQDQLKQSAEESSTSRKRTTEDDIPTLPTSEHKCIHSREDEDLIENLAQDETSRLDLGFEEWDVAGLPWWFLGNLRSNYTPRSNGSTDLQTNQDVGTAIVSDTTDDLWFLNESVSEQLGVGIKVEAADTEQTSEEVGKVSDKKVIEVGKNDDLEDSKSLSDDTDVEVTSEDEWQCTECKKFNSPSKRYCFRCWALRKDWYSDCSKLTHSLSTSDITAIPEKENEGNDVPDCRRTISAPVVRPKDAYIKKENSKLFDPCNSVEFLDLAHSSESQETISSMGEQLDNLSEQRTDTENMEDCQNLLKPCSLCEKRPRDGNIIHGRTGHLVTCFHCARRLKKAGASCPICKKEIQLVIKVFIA
As to the kind of experiment: Inhibition of human MDM4 (1 to 116 residues) incubated for 1 hrs by fluorescence polarization assay.

Test [1] addresses T2, E3 ubiquitin-protein ligase Mdm2 (Homo sapiens, UniProt Q00987). As to the kind of experiment: Inhibition of human MDM2 incubated for 1 hrs by TR-FRET assay. For orientation: TR-FRET usually uses a lanthanide donor and a delayed reading to cut background.
Test [2] deals with Tumour suppressor p53/oncoprotein Mdm2 (Homo sapiens, UniProt Q00987). As to the kind of experiment: Inhibition of human MDM2 to p53 (unknown origin) protein protein interaction. It counts as protein assay.
For test [3], the target named is T2, E3 ubiquitin-protein ligase Mdm2. As to the kind of experiment: Displacement of FAM labeled p53 fragment from human MDM2 (1 to 116 residues) incubated for 1 hrs by fluorescence polarization assay. In general terms: Polarisation of emitted light reports the rotation of a fluorescent probe.
The nature of test [4]: Displacement of FAM labeled PMI from human MDM2 (1 to 114 residues) by fluorescence polarization assay.

T2 sequence (Q00987 whole entry): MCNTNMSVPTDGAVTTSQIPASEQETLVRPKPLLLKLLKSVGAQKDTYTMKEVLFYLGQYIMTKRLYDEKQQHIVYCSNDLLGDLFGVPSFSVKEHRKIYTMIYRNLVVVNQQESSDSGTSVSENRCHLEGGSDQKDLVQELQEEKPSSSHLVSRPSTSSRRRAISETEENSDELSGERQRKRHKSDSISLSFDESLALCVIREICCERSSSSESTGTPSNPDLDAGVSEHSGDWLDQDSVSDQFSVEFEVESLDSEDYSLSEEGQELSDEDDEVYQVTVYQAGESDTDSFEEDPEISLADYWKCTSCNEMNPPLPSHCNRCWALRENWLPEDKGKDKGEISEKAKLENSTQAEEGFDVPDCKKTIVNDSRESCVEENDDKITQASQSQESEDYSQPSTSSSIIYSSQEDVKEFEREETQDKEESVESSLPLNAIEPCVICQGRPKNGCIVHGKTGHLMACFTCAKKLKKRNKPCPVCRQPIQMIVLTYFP
Sequence of Tumour suppressor p53/oncoprotein Mdm2 (P04637 whole entry, the tested form may be a part): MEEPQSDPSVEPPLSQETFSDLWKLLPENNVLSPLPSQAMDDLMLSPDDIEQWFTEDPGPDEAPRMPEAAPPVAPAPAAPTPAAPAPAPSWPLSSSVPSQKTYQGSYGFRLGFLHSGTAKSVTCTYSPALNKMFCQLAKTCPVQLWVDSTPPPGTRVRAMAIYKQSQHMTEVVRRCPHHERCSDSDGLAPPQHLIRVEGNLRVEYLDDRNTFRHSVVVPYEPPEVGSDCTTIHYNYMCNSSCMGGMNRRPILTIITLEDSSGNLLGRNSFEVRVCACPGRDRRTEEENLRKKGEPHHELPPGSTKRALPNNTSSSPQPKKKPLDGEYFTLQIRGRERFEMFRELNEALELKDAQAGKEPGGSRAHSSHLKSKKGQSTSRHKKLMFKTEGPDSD
Sequence of Tumour suppressor p53/oncoprotein Mdm2 (Q00987 whole entry, the tested form may be a part): as the sequence (Q00987 whole entry) above

What is called IC50 is the point on the concentration scale where inhibition reaches its midpoint. Consider `CC(C)[C@@H]1NC(=O)Cn2cc(nn2)C[C@@H](C(N)=O)NC(=O)[C@@H]2C[C@@H](CN2C(=O)c2ccccc2)NC(=O)[C@H](Cc2cccc(C(F)(F)F)c2)NC(=O)[C@@H](C(C)C)CNC(=O)CNC(=O)[C@H](Cc2ccccc2)NC(=O)[C@H](Cc2c[nH]c3ccccc23)NC1=O`, for which the IC50 was more than 50000 nM in the test with RS4-11, 43 nM at Protein Mdm4 and 43 nM in test [1].

As to `CC(C)[C@@H]1NC(=O)Cn2cc(nn2)C[C@H](C(N)=O)NC(=O)[C@@H]2C[C@@H](CN2C(=O)c2ccccc2)NC(=O)[C@H](Cc2cccc(C(F)(F)F)c2)NC(=O)[C@@H](C(C)C)CNC(=O)CNC(=O)[C@H](Cc2ccccc2)NC(=O)[C@H](Cc2c[nH]c3ccccc23)NC1=O`, the IC50 is more than 50000 nM in the test with RS4-11, 8.9 nM in test [2], 9 nM against Protein Mdm4 and 9 nM in test [1].

Turning to `CC(C)[C@@H]1NC(=O)Cn2cc(nn2)CC(C(N)=O)NC(=O)[C@@H]2C[C@@H](CN2C(=O)c2ccccc2)NC(=O)[C@H](Cc2cccc(C(F)(F)F)c2)NC(=O)[C@@H](C(C)C)CNC(=O)CNC(=O)[C@H](Cc2ccccc2)NC(=O)[C@H](Cc2c[nH]c3ccccc23)NC1=O` (stereo partly specified), the IC50 in test [3] was found to be 90 nM; in test [4], 2000 nM.

Regarding `CC[C@H](C)[C@@H]1NC(=O)[C@H](C(C)C)NC(=O)Cn2cc(nn2)CC(C(N)=O)NC(=O)[C@@H](Cc2ccsc2)NC(=O)[C@H](Cc2ccc(Cl)cc2)NC(=O)C[C@@H](C(=O)O)NC(=O)[C@H](CCSC)NC(=O)[C@H](CC(=O)O)NC1=O` (stereo partly specified), the IC50 in test [3] came to 8100 nM; in test [4], 16900 nM.
